{
  "source": "the C3SDB collision cross section collection",
  "note": "Values joined by “and” are separate entries in the source; they are usually repeats but may differ in a detail not shown here. Equal entries are not always repeated.",
  "data": [
    {"details": "[M+H-H2O]+; instrument: TW; calibrated with polyalanine and drug standards", "units": {"collision cross section (N2)": "Å²"}, "values": [
      {"smiles": "NC[C@H](O)c1ccc(O)c(O)c1", "note": "[NOREPINEPHRINE]", "collision cross section (N2)": 132.6}
    ]},
    {"details": "[M+H]+; instrument: TW; calibrated with polyalanine and drug standards", "values": [
      {"smiles": "Cc1c(NC(=O)c2cccnc2)c(=O)n(-c2ccccc2)n1C", "note": "[NIFENAZONE]", "collision cross section (N2)": "172.5 Å²"},
      {"smiles": "COc1ccc(-c2cc(=O)c3c(OC)c(OC)c(OC)c(OC)c3o2)cc1OC", "note": "[NOBILETIN]", "collision cross section (N2)": "191.3 Å²"},
      {"smiles": "CCn1cc(C(=O)O)c(=O)c2cc(F)c(N3CCNCC3)cc21", "note": "[NORFLOXACIN]", "collision cross section (N2)": "184.2 Å² and 170 Å²"},
      {"smiles": "C#C[C@]1(OC(C)=O)CC[C@H]2[C@@H]3CCC4=C/C(=N/O)CC[C@@H]4[C@H]3CC[C@@]21CC", "note": "[NORGESTIMATE]", "collision cross section (N2)": "197.6 Å²"},
      {"smiles": "C#C[C@]1(O)CC[C@H]2[C@@H]3CCC4=CC(=O)CC[C@@H]4[C@H]3CC[C@@]21CC", "note": "[NORGESTREL]", "collision cross section (N2)": "178.6 Å²"},
      {"smiles": "CNCCC=C1c2ccccc2CCc2ccccc21", "note": "[NORTRIPTYLINE]", "collision cross section (N2)": "163.1 Å²"},
      {"smiles": "C=C(C)[C@H]1COc2cc3oc(=O)ccc3cc2O1", "note": "[OBLIQUIN]", "collision cross section (N2)": "150.1 Å²"},
      {"smiles": "COc1ccc(CC(=O)c2ccc(O)cc2O)cc1", "note": "[ONONETIN]", "collision cross section (N2)": "157.4 Å²"},
      {"smiles": "CN1CCCN=C1/C=C/c1cccc(O)c1", "note": "[OXANTEL]", "collision cross section (N2)": "152.6 Å²"},
      {"smiles": "CN(C(=O)CN(CCO)CC(=O)N(C)C(C)(C)Cc1ccccc1)C(C)(C)Cc1ccccc1", "note": "[OXETHAZAINE]", "collision cross section (N2)": "213.7 Å²"},
      {"smiles": "COc1cc2c(cc1-c1cc3cc4ccoc4cc3oc1=O)OCO2", "note": "[PACHYRRHIZIN]", "collision cross section (N2)": "170.7 Å²"},
      {"smiles": "COc1ccnc(CS(=O)c2nc3ccc(OC(F)F)cc3[nH]2)c1OC", "note": "(stereo not given) [PANTOPRAZOLE]", "collision cross section (N2)": "183.4 Å²"},
      {"smiles": "Oc1ccc(Cl)cc1", "note": "[PARACHLOROPHENOL]", "collision cross section (N2)": "108.8 Å²"},
      {"smiles": "OC1(c2ccc(Cl)c(C(F)(F)F)c2)CCN(CCCC(c2ccc(F)cc2)c2ccc(F)cc2)CC1", "note": "[PENFLURIDOL]", "collision cross section (N2)": "219.1 Å²"},
      {"smiles": "C1CCc2nnnn2CC1", "note": "[PENTYLENETETRAZOL]", "collision cross section (N2)": "124.5 Å²"},
      {"smiles": "CCOc1ccc(NC(C)=O)cc1", "note": "[PHENACETIN]", "collision cross section (N2)": "140.5 Å²"},
      {"smiles": "O=C1OC(c2ccc(O)cc2)(c2ccc(O)cc2)c2ccccc21", "note": "[PHENOLPHTHALEIN]", "collision cross section (N2)": "172.1 Å²"},
      {"smiles": "CC(C)=CC1C(C(=O)OCc2cccc(Oc3ccccc3)c2)C1(C)C", "note": "(stereo not given) [PHENOTHRIN]", "collision cross section (N2)": "187.5 Å²"},
      {"smiles": "Nc1ccc(C(=O)Oc2ccccc2)c(O)c1", "note": "[PHENYL AMINOSALICYLATE]", "collision cross section (N2)": "163.4 Å²"},
      {"smiles": "CCCCC1C(=O)N(c2ccccc2)N(c2ccccc2)C1=O", "note": "[PHENYLBUTAZONE]", "collision cross section (N2)": "172.4 Å²"},
      {"smiles": "COc1c(OC)c2occc2c2oc(=O)ccc12", "note": "[PIMPINELLIN]", "collision cross section (N2)": "146.4 Å²"},
      {"smiles": "CC(N=C(NC#N)Nc1ccncc1)C(C)(C)C", "note": "(stereo not given) [PINACIDIL]", "collision cross section (N2)": "165.2 Å²"},
      {"smiles": "O=C(O)/C=C/C=C/c1ccc2c(c1)OCO2", "note": "[PIPERIC ACID]", "collision cross section (N2)": "138.6 Å²"},
      {"smiles": "O=C(/C=C/C=C/c1ccc2c(c1)OCO2)N1CCCCC1", "note": "[PIPERINE]", "collision cross section (N2)": "171.4 Å²"},
      {"smiles": "CCn1cc(C(=O)O)c(=O)c2cnc(N3CCCC3)nc21", "note": "[PIROMIDIC ACID]", "collision cross section (N2)": "161.1 Å²"},
      {"smiles": "CN1C(C(=O)Nc2ccccn2)=C(O)c2ccccc2S1(=O)=O", "note": "[PIROXICAM]", "collision cross section (N2)": "170.7 Å²"},
      {"smiles": "CC(C)c1c(O)c(-c2cc3c(c(C(C)C)c2O)CCC2C(C)(C)CCC[C@]32C)cc2c1CCC1C(C)(C)CCC[C@]21C", "note": "(stereo not given in full) [PODOTOTARIN]", "collision cross section (N2)": "255.6 Å²"},
      {"smiles": "CC(C)=CCc1c2c(c3occ(-c4ccc(O)c(O)c4)c(=O)c3c1O)C=CC(C)(C)O2", "note": "[POMIFERIN]", "collision cross section (N2)": "205.8 Å²"},
      {"smiles": "CC(=O)OCC(=O)[C@@]1(O)CC[C@H]2[C@@H]3CCC4=CC(=O)C=C[C@]4(C)[C@H]3[C@@H](O)C[C@@]21C", "note": "[PREDNISOLONE ACETATE]", "collision cross section (N2)": "194 Å²"},
      {"smiles": "C[C@]12C=CC(=O)C=C1CC[C@@H]1[C@@H]2C(=O)C[C@@]2(C)[C@H]1CC[C@]2(O)C(=O)CO", "note": "[PREDNISONE]", "collision cross section (N2)": "181.8 Å²"},
      {"smiles": "CCC1(c2ccccc2)C(=O)NCNC1=O", "note": "[PRIMIDONE]", "collision cross section (N2)": "146.9 Å²"},
      {"smiles": "CCCn1cnc2c1c(=O)n(CCCCC(C)=O)c(=O)n2C", "note": "[PROPENTOFYLLINE]", "collision cross section (N2)": "168.3 Å²"},
      {"smiles": "CCCc1cc(=O)[nH]c(=S)[nH]1", "note": "[PROPYLTHIOURACIL]", "collision cross section (N2)": "134.7 Å²"},
      {"smiles": "CCCc1cc(C(N)=S)ccn1", "note": "[PROTIONAMIDE]", "collision cross section (N2)": "141.3 Å²"},
      {"smiles": "CC[C@@H](C)C(=O)O[C@H]1[C@H](O)[C@H]2[C@@H](CN3C[C@@H](C)CC[C@H]3[C@@]2(C)O)[C@@H]2C[C@]34O[C@]5(O)[C@@H](OC(=O)[C@@](C)(O)CC)CC[C@@]3(C)[C@@H]5[C@@H](OC(C)=O)[C@@H](OC(C)=O)[C@H]4[C@@]21O", "note": "[PROTOVERATRINE A]", "collision cross section (N2)": "285.2 Å²"},
      {"smiles": "CC[C@@H](C)C(=O)O[C@H]1[C@H](O)[C@H]2[C@@H](CN3C[C@@H](C)CC[C@H]3[C@@]2(C)O)[C@@H]2C[C@]34O[C@]5(O)[C@@H](OC(=O)[C@](C)(O)[C@@H](C)O)CC[C@@]3(C)[C@@H]5[C@@H](OC(C)=O)[C@@H](OC(C)=O)[C@H]4[C@@]21O", "note": "[PROTOVERATRINE B]", "collision cross section (N2)": "287 Å²"},
      {"smiles": "CCc1nc(N)nc(N)c1-c1ccc(Cl)cc1", "note": "[PYRIMETHAMINE]", "collision cross section (N2)": "155.8 Å²"},
      {"smiles": "Cc1ncc(CSSCc2cnc(C)c(O)c2CO)c(CO)c1O", "note": "[PYRITINOL]", "collision cross section (N2)": "173.4 Å²"},
      {"smiles": "O=c1c(O)c(-c2ccc(O)c(O)c2)oc2cc(O)cc(O)c12", "note": "[QUERCETIN]", "collision cross section (N2)": "163.4 Å²"},
      {"smiles": "O=C(O)c1cccnc1C(=O)O", "note": "[QUINOLINIC ACID]", "collision cross section (N2)": "130.2 Å²"},
      {"smiles": "Cc1c(NC(C)C)c(=O)n(-c2ccccc2)n1C", "note": "[RAMIFENAZONE]", "collision cross section (N2)": "156.5 Å²"},
      {"smiles": "COc1ccccc1OCC(O)CN1CCN(CC(=O)Nc2c(C)cccc2C)CC1", "note": "(stereo not given) [RANOLAZINE]", "collision cross section (N2)": "205.2 Å²"},
      {"smiles": "COC(=O)[C@H]1[C@H]2C[C@@H]3c4[nH]c5cc(OC)ccc5c4CCN3C[C@H]2C[C@@H](OC(=O)c2cc(OC)c(OC)c(OC)c2)[C@@H]1OC", "note": "[RESERPINE]", "collision cross section (N2)": "247.3 Å²"},
      {"smiles": "COc1ccc(/C=C/c2cc(O)cc(O)c2)cc1", "note": "[RESVERATROL 4'-METHYL ETHER]", "collision cross section (N2)": "157.3 Å²"},
      {"smiles": "COc1ccc(-c2coc3c(O)c(OC)ccc3c2=O)cc1", "note": "[RETUSIN 7-METHYL ETHER]", "collision cross section (N2)": "164.1 Å²"},
      {"smiles": "COc1cc(O)c2c(=O)c(OC)c(-c3ccc(OC)c(OC)c3)oc2c1", "note": "[RETUSIN]", "collision cross section (N2)": "180.8 Å²"},
      {"smiles": "C[C@@H]1O[C@@H](O[C@H]2[C@H](Oc3cc(O)c4c(=O)cc(-c5ccc(O)cc5)oc4c3)O[C@H](CO)[C@@H](O)[C@@H]2O)[C@H](O)[C@H](O)[C@H]1O", "note": "[RHOIFOLIN]", "collision cross section (N2)": "231.9 Å²"}
    ]},
    {"details": "[M+Na]+; instrument: TW; calibrated with polyalanine and drug standards", "units": {"collision cross section (N2)": "Å²"}, "values": [
      {"smiles": "CC(C)(O)[C@@H]1[C@H]2OC(=O)[C@@H]1[C@]1(O)C[C@H]3O[C@]34C(=O)O[C@H]2[C@]14C", "note": "[PICROTIN]", "collision cross section (N2)": 173.7},
      {"smiles": "C=C(C)[C@@H]1[C@H]2OC(=O)[C@@H]1[C@]1(O)C[C@H]3O[C@]34C(=O)O[C@H]2[C@]14C", "note": "[PICROTOXININ]", "collision cross section (N2)": 168.7}
    ]}
  ]
}
